The series can be described thus: Chelation test with La^3+ (HPLC chromatograms prior and subsequent to mixing). Format: physicochemical. The settings on record: prior vs subsequent to mixing with La^3+.

For `O=C(O)c1cccc(CN2CCOCCOCCN(C(c3ccccc3)c3cccc(C(=O)O)n3)CCOCCOCC2)n1` (centres unmarked) [TOPA-[C7]-phenyl, 6-((16-((6-carboxypyridin-2-yl)(phenyl)methyl)-1,4,10,13-tetraoxa-7,16-diazacyclooctadecan-7-yl)methyl)picolinic acid], the “chelation of La^3+ indicated by shift in HPLC retention time” value is reported as “rapid chelation of La^3+”.

In the case of `CC(C)CCC(c1cccc(C(=O)O)n1)N1CCOCCOCCN(Cc2cccc(C(=O)O)n2)CCOCCOCC1` (centres unmarked) [TOPA-[C7]-isopentyl, 6-((16-(1-(6-carboxypyridin-2-yl)-4-methylpentyl)-1,4,10,13-tetraoxa-7,16-diazacyclooctadecan-7-yl)methyl)picolinic acid], the “chelation of La^3+ indicated by shift in HPLC retention time” value is “rapid chelation of La^3+ and Ac-225”.

The values above are taken from US20250082793A1, “MACROCYCLIC COMPOUNDS AND METHODS OF MAKING THE SAME” (JANSSEN BIOTECH, INC., priority 2021, published 2025).
